Legend:
Assay in all cases: KinomeScan competition binding assay
CIT = biological target: T1, CIT (Homo sapiens, UniProt O14578); conditions: 10 μM compound
T1 construct: purchased KinomeScan, a division of Ambit Biosciences
Text: (§1) This similarity led us to test SNX14 for the ability to inhibit 285 kinases, using the services of KinaseProfiler of Millipore Corporation (285 kinases). […] The KINOMEscan assay has been described in detail in Fabian et al., Nat. Biotechnol. 23: 329 (2005) and Karaman et al., Nat. Biotechnol. 26: 127 (2008).
(§2) The KinomeScan assay is based on a competition binding assay that quantitatively measures the ability of a compound to compete with an immobilized, ATP site directed ligand. The assay is performed by combining three components: DNA-tagged kinase; immobilized ligand; and a test compound. The ability of the test compound to compete with the immobilized ligand is measured via quantitative PCR of the DNA tag. […] The CDKs tested by Millipore for inhibition with SNX14 included CDK1, CDK2, CDK3, CDK5, CDK7 and CDK9; none of these were inhibited to less than 49 percent of control (POC) activity. The CDKs tested by KinomeScan for the effect of Compound 1 included CDK2, CDK3, CDK4, CDK5, CDK7, CDK8, CDK9 and CDK19; aside from CDK8 and CDK19, the strongest inhibited CDK was CDK7 (33% POC binding). To determine the inhibition of which kinases correlates with the biological activity of SNX2-class compounds, we tested eight additional compounds of the SNX2 family, which gave different IC50 values in the cellular assays, for the ability to affect 24 kinases that were most susceptible to compound 1, through the services of KinomeScan. […] We have also determined the binding constant (Kd) for SNX14, compound 1, compound 20, compound 26, compound 43 and compound 14 in kinase assays for CDK8 and CDK19 (Table 1).

CDK8 = biological target: T2, CDK8 (Homo sapiens, UniProt P49336); conditions: for inhibition of CDK8: 10 μM; for Kd: read-out: CDK8 inhibition (Kd); for POC ligand binding, CDK8: 10 μM compound
T2 construct: purchased KinomeScan, a division of Ambit Biosciences
T2 sequence (P49336 whole entry): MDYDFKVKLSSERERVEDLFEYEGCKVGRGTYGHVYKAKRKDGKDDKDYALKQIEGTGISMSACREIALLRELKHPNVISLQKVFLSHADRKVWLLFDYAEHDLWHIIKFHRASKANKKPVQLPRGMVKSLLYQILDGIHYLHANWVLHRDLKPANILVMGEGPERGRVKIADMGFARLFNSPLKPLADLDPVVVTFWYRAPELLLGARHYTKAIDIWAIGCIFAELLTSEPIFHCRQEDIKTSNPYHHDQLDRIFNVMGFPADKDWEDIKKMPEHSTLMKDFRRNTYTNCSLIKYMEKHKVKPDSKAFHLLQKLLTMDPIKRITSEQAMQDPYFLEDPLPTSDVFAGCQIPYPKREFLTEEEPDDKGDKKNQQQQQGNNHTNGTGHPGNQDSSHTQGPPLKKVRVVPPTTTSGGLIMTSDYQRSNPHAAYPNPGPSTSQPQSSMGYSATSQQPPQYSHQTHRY
Text: as §1, §2

HIPK2 = biological target: T3, HIPK2 (Homo sapiens, UniProt Q9H2X6); conditions: 10 μM compound
T3 construct: purchased KinomeScan, a division of Ambit Biosciences
T3 sequence (Q9H2X6 whole entry): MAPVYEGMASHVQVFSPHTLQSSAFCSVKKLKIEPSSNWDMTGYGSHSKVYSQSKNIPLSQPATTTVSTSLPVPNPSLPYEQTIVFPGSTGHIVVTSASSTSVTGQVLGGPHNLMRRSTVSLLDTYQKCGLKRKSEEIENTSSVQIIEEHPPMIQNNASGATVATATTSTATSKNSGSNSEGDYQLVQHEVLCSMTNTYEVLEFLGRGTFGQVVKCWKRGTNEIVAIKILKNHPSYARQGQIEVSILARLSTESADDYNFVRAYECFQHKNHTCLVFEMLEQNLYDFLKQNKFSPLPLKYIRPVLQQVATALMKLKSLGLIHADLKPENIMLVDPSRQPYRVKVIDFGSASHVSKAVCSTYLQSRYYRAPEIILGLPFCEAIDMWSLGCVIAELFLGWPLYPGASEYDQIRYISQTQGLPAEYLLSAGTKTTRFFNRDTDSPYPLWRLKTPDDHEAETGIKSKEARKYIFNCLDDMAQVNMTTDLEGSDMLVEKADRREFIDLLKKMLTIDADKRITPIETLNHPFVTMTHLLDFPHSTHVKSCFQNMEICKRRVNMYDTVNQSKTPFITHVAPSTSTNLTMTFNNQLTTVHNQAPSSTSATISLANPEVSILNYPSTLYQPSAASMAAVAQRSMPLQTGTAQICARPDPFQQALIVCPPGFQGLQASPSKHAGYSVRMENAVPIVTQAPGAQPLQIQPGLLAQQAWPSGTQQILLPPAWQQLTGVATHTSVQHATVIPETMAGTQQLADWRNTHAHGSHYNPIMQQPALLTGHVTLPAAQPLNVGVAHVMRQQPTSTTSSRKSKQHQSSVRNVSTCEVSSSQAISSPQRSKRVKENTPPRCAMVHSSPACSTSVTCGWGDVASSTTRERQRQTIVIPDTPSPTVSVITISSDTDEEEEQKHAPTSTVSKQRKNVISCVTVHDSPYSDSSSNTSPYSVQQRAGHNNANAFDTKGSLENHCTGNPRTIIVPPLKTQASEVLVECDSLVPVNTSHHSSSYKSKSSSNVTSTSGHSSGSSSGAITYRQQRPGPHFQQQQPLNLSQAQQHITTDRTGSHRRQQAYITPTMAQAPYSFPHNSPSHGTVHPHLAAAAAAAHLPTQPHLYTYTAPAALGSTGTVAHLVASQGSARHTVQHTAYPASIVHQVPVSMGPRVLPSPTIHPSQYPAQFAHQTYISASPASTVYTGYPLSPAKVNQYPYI
Text: as §1, §2

EGFR (G719C) = biological target: T4, EGFR (G719C) (Homo sapiens, UniProt P00533, G719C); conditions: 10 μM compound
T4 construct: purchased KinomeScan, a division of Ambit Biosciences
Text: as §1, §2

HIPK3 = biological target: T5, HIPK3 (Homo sapiens, UniProt Q9H422); conditions: 10 μM compound
T5 construct: purchased KinomeScan, a division of Ambit Biosciences
Text: as §1, §2

MAP4K2 = biological target: T6, MAP4K2 (Homo sapiens, UniProt Q12851); conditions: 10 μM compound
T6 construct: purchased KinomeScan, a division of Ambit Biosciences
T6 sequence (Q12851 1-820): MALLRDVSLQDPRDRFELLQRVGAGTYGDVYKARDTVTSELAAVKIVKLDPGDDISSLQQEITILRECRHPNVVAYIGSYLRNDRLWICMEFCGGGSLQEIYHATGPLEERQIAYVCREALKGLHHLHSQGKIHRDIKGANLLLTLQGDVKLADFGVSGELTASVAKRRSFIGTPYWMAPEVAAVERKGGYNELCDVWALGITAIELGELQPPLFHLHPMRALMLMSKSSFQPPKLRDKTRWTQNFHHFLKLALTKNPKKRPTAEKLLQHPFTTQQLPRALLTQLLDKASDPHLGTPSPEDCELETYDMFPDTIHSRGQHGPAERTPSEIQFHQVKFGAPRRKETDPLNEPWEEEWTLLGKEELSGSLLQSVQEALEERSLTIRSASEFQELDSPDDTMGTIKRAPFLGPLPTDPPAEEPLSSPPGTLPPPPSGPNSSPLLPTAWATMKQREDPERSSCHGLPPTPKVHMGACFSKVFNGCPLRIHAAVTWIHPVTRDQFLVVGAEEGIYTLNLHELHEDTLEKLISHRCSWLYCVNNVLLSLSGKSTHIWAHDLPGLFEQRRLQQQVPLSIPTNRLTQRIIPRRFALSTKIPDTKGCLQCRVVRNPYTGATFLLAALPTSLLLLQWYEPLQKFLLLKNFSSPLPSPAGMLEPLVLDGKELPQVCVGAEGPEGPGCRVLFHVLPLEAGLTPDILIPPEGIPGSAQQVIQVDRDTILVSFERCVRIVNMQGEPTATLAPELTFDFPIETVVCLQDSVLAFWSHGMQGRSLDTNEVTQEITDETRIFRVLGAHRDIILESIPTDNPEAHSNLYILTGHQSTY
Text: as §1, §2

CLK4 = biological target: T7, CLK4 (Homo sapiens, UniProt Q9HAZ1); conditions: 10 μM compound
T7 construct: purchased KinomeScan, a division of Ambit Biosciences
T7 sequence (Q9HAZ1 whole entry): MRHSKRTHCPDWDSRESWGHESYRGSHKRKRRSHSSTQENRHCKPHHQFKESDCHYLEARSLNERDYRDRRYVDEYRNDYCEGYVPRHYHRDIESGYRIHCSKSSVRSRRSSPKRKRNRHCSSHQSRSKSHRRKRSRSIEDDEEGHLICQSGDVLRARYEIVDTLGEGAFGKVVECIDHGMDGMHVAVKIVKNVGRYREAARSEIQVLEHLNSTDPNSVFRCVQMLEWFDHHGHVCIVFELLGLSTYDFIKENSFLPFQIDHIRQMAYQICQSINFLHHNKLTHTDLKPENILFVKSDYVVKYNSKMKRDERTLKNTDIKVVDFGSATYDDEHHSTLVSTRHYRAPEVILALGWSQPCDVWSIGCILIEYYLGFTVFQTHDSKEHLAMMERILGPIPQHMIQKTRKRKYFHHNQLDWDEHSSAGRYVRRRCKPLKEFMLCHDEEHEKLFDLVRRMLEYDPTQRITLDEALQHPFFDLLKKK
Text: as §1, §2

CLK1 = biological target: T8, CLK1 (Homo sapiens, UniProt P49759); conditions: 10 μM compound
T8 construct: purchased KinomeScan, a division of Ambit Biosciences
T8 sequence (P49759 whole entry): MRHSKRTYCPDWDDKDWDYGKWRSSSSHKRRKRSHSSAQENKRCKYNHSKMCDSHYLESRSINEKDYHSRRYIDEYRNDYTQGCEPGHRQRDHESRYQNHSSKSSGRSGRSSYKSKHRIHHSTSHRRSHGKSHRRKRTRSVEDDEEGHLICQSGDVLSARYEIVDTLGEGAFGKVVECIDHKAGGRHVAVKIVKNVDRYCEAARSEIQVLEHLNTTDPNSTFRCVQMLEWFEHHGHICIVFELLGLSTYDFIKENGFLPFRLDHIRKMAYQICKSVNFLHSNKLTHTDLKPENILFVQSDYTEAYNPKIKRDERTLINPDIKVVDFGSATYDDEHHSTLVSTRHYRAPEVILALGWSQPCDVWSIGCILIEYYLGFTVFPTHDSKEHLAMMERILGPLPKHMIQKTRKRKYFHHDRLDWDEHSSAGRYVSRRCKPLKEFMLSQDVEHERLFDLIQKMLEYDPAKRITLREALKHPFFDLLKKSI
Text: as §1, §2

CSNK1G3 = biological target: T9, CSNK1G3 (Homo sapiens, UniProt Q9Y6M4); conditions: 10 μM compound
T9 construct: purchased KinomeScan, a division of Ambit Biosciences
T9 sequence (Q9Y6M4 whole entry): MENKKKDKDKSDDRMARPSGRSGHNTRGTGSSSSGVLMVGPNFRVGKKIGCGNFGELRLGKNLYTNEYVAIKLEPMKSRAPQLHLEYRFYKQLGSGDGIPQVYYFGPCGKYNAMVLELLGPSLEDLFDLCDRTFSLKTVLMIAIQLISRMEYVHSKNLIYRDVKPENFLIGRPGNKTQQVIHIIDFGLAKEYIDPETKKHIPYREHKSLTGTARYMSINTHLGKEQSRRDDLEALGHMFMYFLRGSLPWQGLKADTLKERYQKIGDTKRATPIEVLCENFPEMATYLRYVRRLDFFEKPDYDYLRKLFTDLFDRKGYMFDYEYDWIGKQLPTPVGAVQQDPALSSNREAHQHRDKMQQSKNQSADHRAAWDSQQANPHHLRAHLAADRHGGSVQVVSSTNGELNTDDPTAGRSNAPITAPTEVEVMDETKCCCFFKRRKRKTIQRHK
Text: as §1, §2

SLK = biological target: T10, SLK (Homo sapiens, UniProt Q9H2G2); conditions: 10 μM compound
T10 construct: purchased KinomeScan, a division of Ambit Biosciences
Text: as §1, §2

MAPKAPK5 = biological target: T11, MAPKAPK5 (Homo sapiens, UniProt Q8IW41); conditions: 10 μM compound
T11 construct: purchased KinomeScan, a division of Ambit Biosciences
T11 sequence (Q8IW41 1-473): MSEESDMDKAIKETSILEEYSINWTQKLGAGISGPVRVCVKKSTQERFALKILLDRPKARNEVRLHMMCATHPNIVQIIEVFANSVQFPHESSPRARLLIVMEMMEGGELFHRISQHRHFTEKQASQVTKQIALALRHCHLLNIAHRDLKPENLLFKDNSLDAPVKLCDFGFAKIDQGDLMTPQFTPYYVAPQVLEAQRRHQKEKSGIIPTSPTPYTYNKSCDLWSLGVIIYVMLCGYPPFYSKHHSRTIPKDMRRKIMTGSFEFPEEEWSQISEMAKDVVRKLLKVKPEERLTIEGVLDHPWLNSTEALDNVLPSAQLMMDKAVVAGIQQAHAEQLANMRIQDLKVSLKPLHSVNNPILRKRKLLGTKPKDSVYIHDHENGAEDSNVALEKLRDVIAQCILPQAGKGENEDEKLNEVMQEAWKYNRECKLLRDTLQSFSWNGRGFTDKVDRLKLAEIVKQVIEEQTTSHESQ
Text: as §1, §2

MEK3 = biological target: T12, MEK3 (Homo sapiens, UniProt P46734); conditions: 10 μM compound
T12 construct: purchased KinomeScan, a division of Ambit Biosciences
T12 sequence (P46734 1-347): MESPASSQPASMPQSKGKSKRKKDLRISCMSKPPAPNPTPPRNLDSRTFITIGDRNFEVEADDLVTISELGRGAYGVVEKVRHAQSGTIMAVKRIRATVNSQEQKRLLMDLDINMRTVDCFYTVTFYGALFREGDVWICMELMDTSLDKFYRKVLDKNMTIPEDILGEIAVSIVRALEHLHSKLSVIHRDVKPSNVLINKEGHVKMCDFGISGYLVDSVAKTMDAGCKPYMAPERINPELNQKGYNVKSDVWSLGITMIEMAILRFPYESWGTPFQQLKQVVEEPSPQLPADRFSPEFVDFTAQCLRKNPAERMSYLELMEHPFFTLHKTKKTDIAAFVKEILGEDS
Text: as §1, §2

T1 sequence (O14578 whole entry): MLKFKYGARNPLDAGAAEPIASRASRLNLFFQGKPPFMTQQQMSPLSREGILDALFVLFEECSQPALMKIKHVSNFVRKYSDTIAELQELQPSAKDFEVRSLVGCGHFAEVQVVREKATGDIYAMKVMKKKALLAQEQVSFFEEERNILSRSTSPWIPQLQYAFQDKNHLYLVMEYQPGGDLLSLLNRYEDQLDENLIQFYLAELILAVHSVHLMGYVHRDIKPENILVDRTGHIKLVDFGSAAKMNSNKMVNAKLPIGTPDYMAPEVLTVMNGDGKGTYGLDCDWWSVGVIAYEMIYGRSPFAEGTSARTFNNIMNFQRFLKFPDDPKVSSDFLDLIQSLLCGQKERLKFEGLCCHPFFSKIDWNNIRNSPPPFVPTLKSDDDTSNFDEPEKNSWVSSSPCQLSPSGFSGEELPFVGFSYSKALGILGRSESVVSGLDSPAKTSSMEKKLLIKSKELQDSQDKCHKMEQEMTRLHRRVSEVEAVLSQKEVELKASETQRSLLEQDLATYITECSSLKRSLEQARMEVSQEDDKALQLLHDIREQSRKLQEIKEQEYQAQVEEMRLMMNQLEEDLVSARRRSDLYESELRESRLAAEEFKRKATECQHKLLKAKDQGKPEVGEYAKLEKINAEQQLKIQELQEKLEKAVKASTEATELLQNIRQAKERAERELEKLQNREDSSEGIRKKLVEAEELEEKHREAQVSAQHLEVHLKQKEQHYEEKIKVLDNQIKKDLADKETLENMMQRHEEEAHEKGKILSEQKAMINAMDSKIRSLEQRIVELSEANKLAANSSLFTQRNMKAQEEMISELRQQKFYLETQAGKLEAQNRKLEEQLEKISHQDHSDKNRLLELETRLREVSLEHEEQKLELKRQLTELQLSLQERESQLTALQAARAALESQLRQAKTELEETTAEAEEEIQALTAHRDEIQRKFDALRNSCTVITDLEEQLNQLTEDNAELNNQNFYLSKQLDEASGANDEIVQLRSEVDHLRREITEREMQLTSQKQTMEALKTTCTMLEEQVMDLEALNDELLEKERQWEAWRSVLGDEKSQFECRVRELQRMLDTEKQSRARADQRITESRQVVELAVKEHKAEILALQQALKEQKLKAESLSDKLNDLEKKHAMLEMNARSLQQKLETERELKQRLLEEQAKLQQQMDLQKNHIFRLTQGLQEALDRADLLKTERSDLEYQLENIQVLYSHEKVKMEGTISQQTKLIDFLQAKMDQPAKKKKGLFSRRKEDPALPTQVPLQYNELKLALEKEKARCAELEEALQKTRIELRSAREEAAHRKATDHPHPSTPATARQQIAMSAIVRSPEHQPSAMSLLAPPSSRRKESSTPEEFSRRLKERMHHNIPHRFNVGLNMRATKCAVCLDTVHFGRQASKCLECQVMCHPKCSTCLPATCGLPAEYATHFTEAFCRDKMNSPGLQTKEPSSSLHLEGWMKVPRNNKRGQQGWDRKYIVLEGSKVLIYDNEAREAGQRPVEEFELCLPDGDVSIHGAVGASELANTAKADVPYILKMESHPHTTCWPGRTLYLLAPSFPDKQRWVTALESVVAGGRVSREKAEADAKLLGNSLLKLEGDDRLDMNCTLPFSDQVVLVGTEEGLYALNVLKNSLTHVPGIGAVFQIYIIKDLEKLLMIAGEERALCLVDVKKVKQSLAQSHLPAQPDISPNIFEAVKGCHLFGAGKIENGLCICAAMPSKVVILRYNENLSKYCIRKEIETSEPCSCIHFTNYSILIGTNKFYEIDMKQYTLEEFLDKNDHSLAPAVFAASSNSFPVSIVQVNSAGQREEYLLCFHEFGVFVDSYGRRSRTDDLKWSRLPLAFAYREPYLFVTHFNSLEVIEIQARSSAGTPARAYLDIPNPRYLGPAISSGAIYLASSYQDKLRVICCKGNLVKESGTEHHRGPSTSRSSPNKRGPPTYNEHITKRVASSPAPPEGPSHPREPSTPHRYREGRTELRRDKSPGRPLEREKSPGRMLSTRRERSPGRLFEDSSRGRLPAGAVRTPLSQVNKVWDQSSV

SMILES	POC ligand binding, CIT (CIT)	Kd (CDK8)	POC ligand binding, HIPK2 (HIPK2)	POC ligand binding, EGFR (G719C) (EGFR (G719C))	POC ligand binding, HIPK3 (HIPK3)	POC ligand binding, MAP4K2 (MAP4K2)	POC ligand binding, CLK4 (CLK4)	POC ligand binding, CLK1 (CLK1)	POC ligand binding, CSNK1G3 (CSNK1G3)	POC ligand binding, SLK (SLK)	POC ligand binding, MAPKAPK5 (MAPKAPK5)	POC ligand binding, MEK3 (MEK3)	POC ligand binding, CDK8 (CDK8)	also measured
N#Cc1ccc2ncnc(NCCc3ccccc3)c2c1 [compound 1]	15 POC	830 nM	18 POC	13 POC	18 POC	12 POC	8 POC	4.2 POC	16 POC	11 POC	15 POC	18 POC	–	inhibition of CDK8 (CDK8): > 99%
N#Cc1ccc2ncnc(NCc3ccc4ccccc4c3)c2c1 [compound 14]	–	2500 nM	–	–	–	–	–	–	–	–	–	–	–	POC ligand binding, CIT (CIT; 10 µM): 9.8 POC; POC ligand binding, CDK8 (CDK8; 10 µM): 0.4 POC; POC ligand binding, HIPK2 (HIPK2; 10 µM): 34 POC; POC ligand binding, EGFR (G719C) (EGFR (G719C); 10 µM): 92 POC; POC ligand binding, HIPK3 (HIPK3; 10 µM): 35 POC; POC ligand binding, MAP4K2 (MAP4K2; 10 µM): 16 POC; POC ligand binding, CLK4 (CLK4; 10 µM): 16 POC; POC ligand binding, CLK1 (CLK1; 10 µM): 18 POC; POC ligand binding, CSNK1G3 (CSNK1G3; 10 µM): 52 POC; POC ligand binding, SLK (SLK; 10 µM): 90 POC; POC ligand binding, MAPKAPK5 (MAPKAPK5; 10 µM): 100 POC; POC ligand binding, MEK3 (MEK3; 10 µM): 29 POC
N#Cc1ccc2ncnc(NCc3ccc(Cl)cc3)c2c1 [compound 20]	7.9 POC	240 nM	28 POC	34 POC	28 POC	21 POC	11 POC	12 POC	82 POC	61 POC	92 POC	76 POC	0.15 POC	–
N#Cc1ccc2ncnc(NCCc3ccc4ccccc4c3)c2c1 [compound 26]	40 POC	570 nM	73 POC	68 POC	66 POC	28 POC	26 POC	32 POC	50 POC	73 POC	100 POC	78 POC	0 POC	inhibition of CDK8 (CDK8): ~100%
N#Cc1ccc2ncnc(NCc3ccc4ccccc4c3)c2c1 [compound 43]	–	240 nM	–	–	–	–	–	–	–	–	–	–	–	POC ligand binding, CIT (CIT; 10 µM): 14 POC; POC ligand binding, CDK8 (CDK8; 10 µM): 1.6 POC; POC ligand binding, HIPK2 (HIPK2; 10 µM): 30 POC; POC ligand binding, EGFR (G719C) (EGFR (G719C); 10 µM): 53 POC; POC ligand binding, HIPK3 (HIPK3; 10 µM): 42 POC; POC ligand binding, MAP4K2 (MAP4K2; 10 µM): 28 POC; POC ligand binding, CLK4 (CLK4; 10 µM): 9.6 POC; POC ligand binding, CLK1 (CLK1; 10 µM): 9 POC; POC ligand binding, CSNK1G3 (CSNK1G3; 10 µM): 54 POC; POC ligand binding, SLK (SLK; 10 µM): 92 POC; POC ligand binding, MAPKAPK5 (MAPKAPK5; 10 µM): 85 POC; POC ligand binding, MEK3 (MEK3; 10 µM): 64 POC
COc1ccc2ncnc(NCCc3ccccc3)c2c1 [compound 44]	18 POC	–	62 POC	0.85 POC	53 POC	35 POC	17 POC	17 POC	84 POC	43 POC	94 POC	72 POC	24 POC	–
CC(C)CNc1ncnc2ccc(C(F)(F)F)cc12 [compound 45]	50 POC	–	20 POC	59 POC	28 POC	12 POC	7.8 POC	8.4 POC	50 POC	59 POC	100 POC	71 POC	37 POC	–

Reference: patent US8598344B2, “CDKI pathway inhibitors and uses thereof” (Senex Biotechnology, priority 2009, dated 2013)
